According to the NIST ThermoML archive (doi:10.1021/je700699u):
± gives the expanded uncertainty stated by the source.

Experiment: cn = amount concentration of the nth substance listed, in mol/dm3
Settings: 101 kPa, Liquid

N[C@@H](Cc1ccccc1)C(=O)[O-].[K+] [potassium L-phenylalaninate] + O
Settings	mass density, 298.15 K [kg/m3]	mass density, 303.15 K [kg/m3]	mass density, 313.15 K [kg/m3]	mass density, 323.15 K [kg/m3]	mass density, 333.15 K [kg/m3]	viscosity, 298.15 K [mPa·s]	viscosity, 303.15 K [mPa·s]	viscosity, 313.15 K [mPa·s]	viscosity, 323.15 K [mPa·s]	viscosity, 333.15 K [mPa·s]
c1 = 0.25	1015 ± 2	1014 ± 2	1010 ± 2	1005 ± 1	1001 ± 1	1.059 ± 0.034	0.938 ± 0.03	0.769 ± 0.025	0.641 ± 0.022	0.549 ± 0.019
c1 = 0.496	1032 ± 2	1031 ± 2	1027 ± 2	1022 ± 2	1017 ± 2	1.224 ± 0.038	1.092 ± 0.034	0.884 ± 0.029	0.738 ± 0.025	0.631 ± 0.022
c1 = 0.745	1051 ± 2	1049 ± 2	1044 ± 2	1039 ± 2	1034 ± 2	–	–	–	–	–
c1 = 0.746	–	–	–	–	–	1.441 ± 0.044	1.279 ± 0.04	1.032 ± 0.033	0.852 ± 0.028	0.72 ± 0.024
c1 = 0.996	1067 ± 2	1065 ± 2	1060 ± 2	1055 ± 2	1049 ± 2	1.695 ± 0.051	1.495 ± 0.046	1.194 ± 0.037	0.98 ± 0.031	0.823 ± 0.027
c1 = 1.226	1084 ± 3	1081 ± 3	1077 ± 3	1071 ± 3	1066 ± 2	–	–	–	–	–
c1 = 1.227	–	–	–	–	–	2.03 ± 0.061	1.782 ± 0.054	1.41 ± 0.043	1.15 ± 0.036	0.963 ± 0.031
c1 = 1.453	1100 ± 3	1097 ± 3	1092 ± 3	1087 ± 3	1081 ± 3	2.483 ± 0.073	2.169 ± 0.064	1.702 ± 0.052	1.377 ± 0.043	1.139 ± 0.036

O=C([O-])[C@@H]1CCCN1.[K+] [potassium L-prolinate] + O
Settings	mass density, 298.15 K [kg/m3]	mass density, 303.15 K [kg/m3]	mass density, 313.15 K [kg/m3]	mass density, 323.15 K [kg/m3]	mass density, 333.15 K [kg/m3]	viscosity, 298.15 K [mPa·s]	viscosity, 303.15 K [mPa·s]	viscosity, 313.15 K [mPa·s]	viscosity, 323.15 K [mPa·s]	viscosity, 333.15 K [mPa·s]
c1 = 0.507	1028 ± 2	1027 ± 2	1023 ± 2	1019 ± 2	1014 ± 2	1.107 ± 0.035	0.986 ± 0.032	0.799 ± 0.026	0.664 ± 0.023	0.565 ± 0.02
c1 = 1.01	1059 ± 2	1057 ± 2	1053 ± 2	1048 ± 2	1043 ± 2	1.4 ± 0.043	1.242 ± 0.039	0.992 ± 0.032	0.816 ± 0.027	0.685 ± 0.023
c1 = 1.523	1089 ± 3	1087 ± 3	1082 ± 3	1077 ± 3	1072 ± 3	1.811 ± 0.055	1.59 ± 0.048	1.251 ± 0.039	1.017 ± 0.032	0.846 ± 0.028
c1 = 2.01	1118 ± 3	1115 ± 3	1110 ± 3	1105 ± 3	1100 ± 3	2.365 ± 0.07	2.061 ± 0.062	1.599 ± 0.049	1.286 ± 0.04	1.061 ± 0.034
c1 = 2.521	1146 ± 4	1144 ± 4	1138 ± 4	1133 ± 4	1127 ± 4	3.163 ± 0.092	2.721 ± 0.08	2.076 ± 0.062	1.636 ± 0.05	1.331 ± 0.041
c1 = 2.983	1171 ± 4	1168 ± 4	1162 ± 4	1156 ± 4	1150 ± 4	4.112 ± 0.12	3.516 ± 0.1	2.664 ± 0.078	2.068 ± 0.062	1.658 ± 0.05
c1 = 3.448	1197 ± 5	1194 ± 5	1188 ± 5	1182 ± 4	1176 ± 4	5.732 ± 0.16	4.837 ± 0.14	3.587 ± 0.1	2.767 ± 0.081	2.181 ± 0.065
